Tests used:
[1] = Cytotoxicity against human HeLa cells expressing YFP parkin assessed as highest safety dose by DAPI staining analysis; format: toxicity, cell-based; settings: read-out: Activity
[2] = Cytotoxicity against human HeLa cells expressing YFP parkin treated with FCCP/ oligomycin assessed as highest safety dose by DAPI staining analysis; format: toxicity, cell-based; settings: read-out: Activity

SMILES	MNTC [1] [µM]	MNTC [2] [µM]
C[C@H]1CN([C@H]2COc3ccccc3[C@@H]2Nc2ncnc3[nH]c(C4CC4)cc23)CCO1	25	15.1
Fc1ccc2c(c1)CC[C@H](N1C[C@H]3COC[C@@H]3C1)[C@H]2Nc1ncnc2[nH]c(C(F)(F)F)cc12	25	9.1
Fc1ccc2c(c1)OC[C@H](N1C[C@@H]3COC[C@H]3C1)[C@H]2Nc1ncnc2[nH]c(C3CC3)cc12 (single isomer, unassigned)	25	13.9
COC1CN([C@H]2COc3ccccc3[C@@H]2Nc2ncnc3[nH]c(C4CC4)cc23)C1	25	25
C[C@@H]1CN([C@@H]2COc3ccccc3[C@H]2Nc2ncnc3[nH]c(C(F)(F)F)cc23)C[C@H](C)O1	25	2.3
COC1CN([C@H]2COc3ccccc3[C@@H]2Nc2ncnc3[nH]c(C(F)(F)F)cc23)C1	8.3	8.3
COC[C@@H]1CCN(C2COc3ccccc3C2Nc2ncnc3[nH]c(C4CC4)cc23)C1 (single isomer, unassigned)	25	1.4
Fc1ccc2c(c1)CC[C@H](N1C[C@@H]3COC[C@H]3C1)[C@H]2Nc1ncnc2[nH]c(C3CC3)cc12	25	25
FC(F)(F)c1cc2c(N[C@@H]3c4ccccc4OC[C@@H]3C3CCCOC3)ncnc2[nH]1 (single isomer, unassigned)	25	25
COC[C@@H]1CCN([C@H]2COc3ccccc3[C@@H]2Nc2ncnc3[nH]c(C(F)(F)F)cc23)C1 (single isomer, unassigned)	25	3.3
COC[C@H]1CCN([C@H]2COc3ccccc3[C@@H]2Nc2ncnc3[nH]c(C(F)(F)F)cc23)C1 (single isomer, unassigned)	25	4.5
FC(F)(F)c1cc2c(N[C@H]3c4ccccc4OC[C@@H]3N3C[C@H]4COC[C@H]4C3)ncnc2[nH]1	25	25
c1ccc2c(c1)CC[C@H](C1CCOCC1)[C@H]2Nc1ncnc2[nH]c(C3CC3)cc12 (single isomer, unassigned)	25	2.1
[2H]C([2H])([2H])OC1CN([C@H]2COc3ccccc3[C@@H]2Nc2ncnc3[nH]c(C(F)(F)F)cc23)C1	25	19.8
Fc1ccc2c(c1)CC[C@H](N1C[C@H]3COC[C@H]3C1)[C@H]2Nc1ncnc2[nH]c(C3CC3)cc12	25	10.3
C[C@@H]1CN([C@H]2COc3cc(F)ccc3[C@@H]2Nc2ncnc3[nH]c(C4CC4)cc23)CCO1	16.7	2
c1ccc2c(c1)OC[C@@H](C1CCOCC1)[C@@H]2Nc1ncnc2[nH]c(C3CC3)cc12	25	3.2
Fc1ccc2c(c1)CC[C@H](N1C[C@H]3COC[C@@H]3C1)[C@H]2Nc1ncnc2[nH]c(C3CC3)cc12	25	11.7
C[C@@H]1CN([C@H]2COc3cc(F)ccc3[C@@H]2Nc2ncnc3[nH]c(C(F)(F)F)cc23)C[C@H](C)O1 (single isomer, unassigned)	25	9.9
FC(F)(F)c1cc2c(N[C@@H]3c4ccccc4CC[C@H]3N3C[C@H]4COC[C@H]4C3)ncnc2[nH]1 (single isomer, unassigned)	25	9.1
CO[C@H]1CCN([C@H]2COc3ccccc3[C@@H]2Nc2ncnc3[nH]c(C4CC4)cc23)C1	25	1.1
FC(F)(F)c1cc2c(N[C@H]3c4ccccc4OC[C@H]3C3CCCOC3)ncnc2[nH]1 (mixture of isomers)	25	25

SMILES	MNTC [1] [µM]	MNTC [2] [µM]
C[C@@H]1CN([C@H]2CCc3ccccc3[C@@H]2Nc2ncnc3[nH]c(C4CC4)cc23)CCO1 (single isomer, unassigned)	25	1.3
C[C@@H]1CN([C@H]2CCc3ccccc3[C@@H]2Nc2ncnc3[nH]c(C(F)(F)F)cc23)CCO1 (single isomer, unassigned)	25	3.7
FC(F)(F)c1cc2c(NC3c4ccccc4OCC3N3C[C@@H]4COC[C@H]4C3)ncnc2[nH]1 (stereo partly drawn)	25	25
C[C@H]1CN([C@@H]2COc3ccccc3[C@H]2Nc2ncnc3[nH]c(C(F)(F)F)cc23)CCO1	19.4	19.4
C[C@@H]1CN([C@H]2COc3ccccc3[C@@H]2Nc2ncnc3[nH]c(C4CC4)cc23)C[C@H](C)O1 (single isomer, unassigned)	25	2.3
FC1COCCC1[C@H]1COc2ccccc2[C@@H]1Nc1ncnc2[nH]c(C(F)(F)F)cc12 (single isomer, unassigned)	25	–
C[C@@H]1CN([C@H]2COc3ccccc3[C@@H]2Nc2ncnc3[nH]c(C4CC4)cc23)CCO1	25	–
Fc1ccc2c(c1)OC[C@@H](N1C[C@H]3COC[C@H]3C1)[C@@H]2Nc1ncnc2[nH]c(C3CC3)cc12	25	16
Fc1ccc2c(c1)CC[C@@H](N1C[C@H]3COC[C@H]3C1)[C@@H]2Nc1ncnc2[nH]c(C(F)(F)F)cc12 (single isomer, unassigned)	8.3	8.3
FC(F)(F)c1cc2c(N[C@H]3c4ccccc4OC[C@@H]3C3CCOCC3)ncnc2[nH]1 (single isomer, unassigned)	25	25
C[C@@H]1CN([C@H]2COc3cc(F)ccc3[C@@H]2Nc2ncnc3[nH]c(C4CC4)cc23)C[C@H](C)O1 (single isomer, unassigned)	25	2
c1ccc2c(c1)CC[C@H](N1C[C@H]3COC[C@H]3C1)[C@H]2Nc1ncnc2[nH]c(C3CC3)cc12	25	0.9
C[C@H]1CN([C@@H]2COc3cc(F)ccc3[C@H]2Nc2ncnc3[nH]c(C4CC4)cc23)CCO1	25	7.4
C[C@@H]1CN([C@@H]2COc3cc(F)ccc3[C@H]2Nc2ncnc3[nH]c(C(F)(F)F)cc23)C[C@H](C)O1	25	2.2
C[C@@H]1CN([C@@H]2COc3cc(F)ccc3[C@H]2Nc2ncnc3[nH]c(C4CC4)cc23)C[C@H](C)O1	25	1.2
FC(F)(F)c1cc2c(N[C@@H]3c4ccccc4OC[C@H]3N3CCOCC3)ncnc2[nH]1	25	–
C[C@@H]1CN([C@@H]2COc3ccccc3[C@H]2Nc2ncnc3[nH]c(C4CC4)cc23)CCO1	25	1.7
Fc1ccc2c(c1)CC[C@@H](N1CCOCC1)[C@@H]2Nc1ncnc2[nH]c(C3CC3)cc12	25	–
C[C@H]1CN([C@H]2CCc3ccccc3[C@@H]2Nc2ncnc3[nH]c(C4CC4)cc23)CCO1 (single isomer, unassigned)	25	3.5
Fc1ccc2c(c1)OC[C@H](N1CCOCC1)[C@H]2Nc1ncnc2[nH]c(C3CC3)cc12	25	–
C[C@@H]1CN([C@H]2COc3ccccc3[C@@H]2Nc2ncnc3[nH]c(C(F)(F)F)cc23)CCO1	25	–
FC(F)(F)c1cc2c(N[C@H]3c4ccccc4CC[C@H]3C3CCOCC3)ncnc2[nH]1	25	–

SMILES	MNTC [1] [µM]	MNTC [2] [µM]
COC[C@H]1CCN([C@H]2COc3ccccc3[C@@H]2Nc2ncnc3[nH]c(C4CC4)cc23)C1	25	3.6
FC(F)(F)c1cc2c(N[C@H]3c4ccccc4OC[C@H]3C3CCOCC3)ncnc2[nH]1	8.3	–
OC[C@H]1CN([C@H]2COc3ccccc3[C@@H]2Nc2ncnc3[nH]c(C(F)(F)F)cc23)CCO1 (single isomer, unassigned)	25	–
C[C@@H]1CN([C@@H]2COc3ccccc3[C@H]2Nc2ncnc3[nH]c(C(F)(F)F)cc23)CCO1	25	9.7
c1ccc2c(c1)OC[C@H](C1CCOCC1)[C@@H]2Nc1ncnc2[nH]c(C3CC3)cc12	25	–
OC(C1CCOCC1)[C@H]1COc2ccccc2[C@@H]1Nc1ncnc2[nH]c(C(F)(F)F)cc12 (stereo partly drawn)	25	–
Fc1ccc2c(c1)OC[C@H](N1C[C@H]3COC[C@H]3C1)[C@H]2Nc1ncnc2[nH]c(C3CC3)cc12 (single isomer, unassigned)	25	–
Fc1cccc2c1CC[C@H](N1C[C@H]3COC[C@H]3C1)[C@H]2Nc1ncnc2[nH]c(C(F)(F)F)cc12 (single isomer, unassigned)	25	–
C[C@H]1CN([C@@H]2CCc3ccccc3[C@H]2Nc2ncnc3[nH]c(C4CC4)cc23)CCO1 (single isomer, unassigned)	25	–
c1ccc2c(c1)CC[C@H](C1CCOCC1)[C@@H]2Nc1ncnc2[nH]c(C3CC3)cc12	25	–
CO[C@@H]1CCN([C@@H]2COc3ccccc3[C@H]2Nc2ncnc3[nH]c(C(F)(F)F)cc23)C1	25	–
C[C@@H]1CN([C@@H]2CCc3ccccc3[C@H]2Nc2ncnc3[nH]c(C4CC4)cc23)C[C@H](C)O1 (single isomer, unassigned)	25	–
c1ccc2c(c1)OCC(N1CC3CCOC3C1)C2Nc1ncnc2[nH]c(C3CC3)cc12 (single isomer, unassigned)	25	–
C[C@H]1CN([C@H]2COc3cc(F)ccc3[C@@H]2Nc2ncnc3[nH]c(C4CC4)cc23)CCO1	25	–
OC[C@@H]1CN([C@H]2COc3ccccc3[C@@H]2Nc2ncnc3[nH]c(C(F)(F)F)cc23)CCO1 (single isomer, unassigned)	25	–
CO[C@H]1CCN([C@@H]2COc3ccccc3[C@H]2Nc2ncnc3[nH]c(C4CC4)cc23)C1	25	–
c1ccc2c(c1)OC[C@@H](N1C[C@H]3COC[C@H]3C1)[C@@H]2Nc1ncnc2[nH]c(C3CC3)cc12 (single isomer, unassigned)	25	–
CN1CCN([C@@H]2CCc3ccccc3[C@H]2Nc2ncnc3[nH]c(C(F)(F)F)cc23)CC1 (single isomer, unassigned)	25	–
Fc1ccc2c(c1)OC[C@H](N1C[C@@H]3COC[C@H]3C1)[C@H]2Nc1ncnc2[nH]c(C(F)(F)F)cc12 (single isomer, unassigned)	25	–
Fc1cccc2c1CC[C@@H](N1C[C@H]3COC[C@H]3C1)[C@@H]2Nc1ncnc2[nH]c(C3CC3)cc12 (single isomer, unassigned)	25	–

— ChEMBL document CHEMBL5393453, “Compositions and methods of using the same for treatment of neurodegenerative and mitochondrial disease” (2021)
